This is an account of results in patent US10039846B2, “Compositions targeting bradykinin receptor B1 for medical imaging of cancer and other disorders” (BRITISH COLUMBIA CANCER AGENCY BRANCH, priority 2012, dated 2018).

Values joined by “and” are separate entries in the source; they are usually repeats but may differ in a detail not shown here. Equal values may be shown once. Read-outs that look alike come from different tables or passages of the source. Where a SMILES comes first, the peptide text is derived from it. Where no end group is shown, it is not given here. [ ]: non-standard residue; d: D form. The star is where a group is joined. DOTA = O=C(O)CN1CCN(CC(=O)O)CCN(CC(=O)*)CCN(CC(=O)O)CC1; Hyp = O=C(O)[C@@H]1C[C@@H](O)CN1; Cha = N[C@@H](CC1CCCCC1)C(=O)O; PEG2 = NCCOCCOCCC(=O)O; Ahx = NCCCCCC(=O)O; Sar = CNCC(=O)O

For data set [1], the system named is HEK-293 and HEK-293/BKRB1 tumours. To be noted: mouse.
Experimental: (§2) For in vivo imaging, HEK-293 and HEK-293 cells stably transfected with the human bradykinin receptor B1 (HEK-293/BKRB1) were inoculated in the flank of immunodeficient mice (NODSCID IL2rKO). […] A computer tomography image of the mouse was obtained for organ localization and attenuation correction, followed by PET imaging, using a Siemens Inveon multimodality preclinical scanner. Images were acquired over 10-15 minutes for each animal.
Data set [2] concerns the target T1, B1R (Homo sapiens, UniProt P46663).
T1 sequence (P46663 1-353): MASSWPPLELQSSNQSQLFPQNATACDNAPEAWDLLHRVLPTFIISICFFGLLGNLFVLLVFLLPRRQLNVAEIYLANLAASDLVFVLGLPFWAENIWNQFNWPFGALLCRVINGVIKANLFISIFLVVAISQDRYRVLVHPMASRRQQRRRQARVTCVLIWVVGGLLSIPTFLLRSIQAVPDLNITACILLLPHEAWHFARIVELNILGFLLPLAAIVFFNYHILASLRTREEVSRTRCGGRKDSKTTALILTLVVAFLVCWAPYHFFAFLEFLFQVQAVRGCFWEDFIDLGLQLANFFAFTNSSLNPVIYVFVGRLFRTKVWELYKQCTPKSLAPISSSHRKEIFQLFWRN
The data set can be described thus: Competitive binding assay with 3H radioligand on CHO-K1 cell membranes over-expressing human B1R. More on the design: purchased Perkin Elmer Inc., Waltham, Mass; ES-091-M400UA; host or cells: CHO-K1 cells over-expressing human B1R (membrane preparation). The protocol: The ability of the peptide and small molecule B1R targeting compounds to bind to B1R was assessed in competitive binding assay as described below.
Preparation of Cell Membranes: Ready to use cell membranes (12.5 μg/μL) from CHO-K1 cells over-expressing human B1R were obtained from Perkin Elmer Inc., Waltham, Mass. (cat. no. ES-091-M400UA). Binding using cell membranes from HEK293T::GFP::hB1R (from Example 3) was also tested. In the latter case, the membranes were prepared as follows: 90% confluent cells grown in large flask, T225, were detached and pelleted in a 50 mL conical tube using centrifuge at 1,200 rpm for 5 minutes. Afterward, cells were re-suspended in 20-30 mL of cold 50 mM Tris-HCl pH 7.4. Ice cold cells were disrupted for 15 seconds at 15,000 rpm with a Polytron PT3100 (Kinematica AG, Lucerne, Switzerland). The solution was aliquoted and centrifuged at 4° C. at 17,000×g for 30 minutes. The supernatant was discarded, and then the pellet was dissolved in 1-2 mL of cold salt solution containing 50 mM Tris-HCl pH 7.4 and 100 mM NaCl and incubated for 1 hour on ice. The cell membranes were pelleted by centrifugation at 4° C. at 17,000×g for 30 minutes and resuspended in 200-600 μL of 50 mM Tris-HCl pH 7.4. The cell membrane extract was stored at −80° C. Protein concentration was determined by Bradford assay (cat. no. R1271, Fermentas, Thermo Fisher Scientific, Burlington, ON). 50 ug of cell membranes per well was used for the competitive binding assay. […] Radio-labelled control was H-3 labelled [Leu^9,des-Arg^10] kallidin obtained either from American Radiolabelled Chemicals Inc, St. Louis, Mo.
Competitive Binding Assays: Assays were performed using 96-well MultiScreenHTS with glass fiber filter and PVDF support obtained from Millipore Corp, Billerica, Mass. (cat. no. MSFB N6B, lot no. R8AN42424). Wells of the MultiScreen plate were pre-soaked with 0.5% of cold Poly(ethyleneimine) (PEI) (cat. no. P3143, Sigma-Aldrich, St. Louis, Mo.) for 30 minutes. Afterward, wells were washed once with 50 mM of Tris-HCl pH 7.4. Total volume per wells was 200 μL. A fixed concentration of the hot radioligand (1, 3, 5 or 12.5 nM depending on the radioligand; see Table 5) was incubated with progressively higher concentrations (10^−11 to 10^−4 M) of the non-radioactive competitor of interest in the presence of cell membranes (50 μg/well) and the assay buffer (50 mM Tris-HCl pH 7.4, 5 mM MgCl2). The MultiScreen plate was then incubated at 27° C. for 15 minutes with agitation at 300 rpm. The assay was stopped by suctioning the reaction solution through the bottom PVDF membrane filter and discarded. The membranes were washed 7× with 150 μL/well of cold 50 mM Tris-HCl pH 7.4. Radioactivity was counted using 1450 MicroBeta TriLux—Microplate Scintillation and Luminescence Counter (Perkin Elmer Inc., Shelton, Conn.).

The test system of data set [3] is HEK-293 and HEK-293/BKRB1 tumours. The data set can be described thus: PET/CT imaging of 68Ga-labelled peptides in tumour-bearing mice. The settings on record: PET/CT 60 minutes after intravenous injection.
Experimental: as §2
Another data set in a line: in vivo. The settings on record: NODSCID/IL2RKO, mouse, total radioactivity. The protocol: (§1) ^68Ga labeling of Peptide 4 was performed in NaOAc buffer (pH 4.1) at 110° C. for 10 min, and [^68Ga]P03083 was purified by HPLC. PET imaging and biodistribution studies were performed in NODSCID/IL2RKO mice bearing both B1R-negative HEK293T:GFP tumour and B1R-positive HEK293T:hB1R tumour.

Data set [4] relates to B1R-negative HEK293T:GFP tumour and B1R-positive HEK293T:hB1R tumour. The data set is described as follows: in vivo. To be noted: mouse. The protocol:
as §1

Data set [5] deals with T1, B1R. The settings on record: Cote et al, Peptides 2009; cited from earlier work.
A further data set deals with T2, B2R (Homo sapiens, UniProt P30411).
T2 sequence (P30411 1-391): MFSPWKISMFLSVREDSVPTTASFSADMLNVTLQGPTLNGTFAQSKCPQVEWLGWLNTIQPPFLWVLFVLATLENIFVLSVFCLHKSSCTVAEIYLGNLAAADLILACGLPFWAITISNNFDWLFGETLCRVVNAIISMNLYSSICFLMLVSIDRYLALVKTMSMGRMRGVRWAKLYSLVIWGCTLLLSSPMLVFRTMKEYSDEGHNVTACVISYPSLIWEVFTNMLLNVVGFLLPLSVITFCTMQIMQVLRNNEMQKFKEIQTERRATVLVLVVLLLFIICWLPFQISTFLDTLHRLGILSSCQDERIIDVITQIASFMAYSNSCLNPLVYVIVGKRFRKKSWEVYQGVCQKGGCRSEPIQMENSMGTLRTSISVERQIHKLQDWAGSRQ
The settings on record: Cote et al, Peptides 2009; cited from earlier work.

On to `CC(C)C[C@H](NC(=O)[C@@H]1CCCN1C(=O)[C@H](CO)NC(=O)[C@H](CC1CCCCC1)NC(=O)CNC(=O)[C@@H]1C[C@@H](O)CN1C(=O)[C@@H]1CCCN1C(=O)[C@H](CCCNC(=N)N)NC(=O)[C@H](CCCCN)NC(=O)CCOCCOCCNC(=O)CN1CCN(CC(=O)O)CCN(CC(=O)O)CCN(CC(=O)O)CC1)C(=O)O` [Peptide 3, Ga-DOTA-PEG2-Lys-Arg-Pro-Hyp-Gly-Cha-Ser-Pro-Leu] ({DOTA-PEG2}-KRP[Hyp]G[Cha]SPL-OH), for which the background activity result in data set [1] (in vivo, iv) is recorded as “very low background activity”. The clearance route entry in data set [1] (in vivo, iv) was “renal and bladder clearance”. Also, the Ki on B1R [2] (Hot 4.6 nM BK-ANT-ARC, CHO-K1 membranes, individual assays, read-out: Ki) was 17.1 nM and 16 nM; on B1R [2] (text of Example 5, referring to Example 4, read-out: binding affinity for B1R), 32.8 nM.
Turning to `CC(C)C[C@H](NC(=O)[C@@H]1CCCN1C(=O)[C@H](CO)NC(=O)[C@H](CC1CCCCC1)NC(=O)CNC(=O)[C@@H]1C[C@@H](O)CN1C(=O)[C@@H]1CCCN1C(=O)[C@H](CCCNC(=N)N)NC(=O)[C@H](CCCCN)NC(=O)CNC(=O)CNC(=O)CN1CCN(CC(=O)O)CCN(CC(=O)O)CCN(CC(=O)O)CC1)C(=O)O` [Peptide 8, Ga-DOTA-Gly-Gly-Lys-Arg-Pro-Hyp-Gly-Cha-Ser-Pro-Leu] ({DOTA}-GGKRP[Hyp]G[Cha]SPL-OH), in data set [3], the clearance route entry was “predominantly via the kidneys and bladder”; the “uptake / visualization of B1R+ tumour” value is reported as “good visualization of B1R+ expressing cells”; the “uptake in negative control (B1R-) tumour” value is on record as “essentially negligible non-specific uptake”.
On to `CC(C)C[C@H](NC(=O)[C@@H]1CCCN1C(=O)[C@H](CO)NC(=O)[C@H](CC1CCCCC1)NC(=O)CNC(=O)[C@@H]1C[C@@H](O)CN1C(=O)[C@@H]1CCCN1C(=O)[C@H](CCCNC(=N)N)NC(=O)[C@H](CCCCN)NC(=O)CCCCCNC(=O)CN1CCN(CC(=O)O)CCN(CC(=O)O)CCN(CC(=O)O)CC1)C(=O)O` [Peptide 10, Ga-DOTA-Ahx-Lys-Arg-Pro-Hyp-Gly-Cha-Ser-Pro-Leu] ({DOTA-Ahx}-KRP[Hyp]G[Cha]SPL-OH), for which the in vivo stability entry in data set [1] is “much greater in vivo stability”. The background activity result in data set [1] (in vivo, iv) was “lower background uptake”.
As to `N=C(N)NCCC[C@H](NC(=O)[C@H](CCCCN)NC(=O)CCCCCNC(=O)CN1CCN(CC(=O)O)CCN(CC(=O)O)CCN(CC(=O)O)CC1)C(=O)N1CCC[C@H]1C(=O)N1C[C@H](O)C[C@H]1C(=O)NCC(=O)N[C@@H](CC1CCCCC1)C(=O)N[C@@H](CO)C(=O)N1CCC[C@H]1C(=O)N[C@H](Cc1ccccc1)C(=O)O` [Peptide 12, Ga-DOTA-Ahx-Lys-Arg-Pro-Hyp-Gly-Cha-Ser-Pro-(D-Phe)], in data set [3], the background activity entry was “minimal background activity”; the clearance route result is “good clearance through the kidneys and bladder”; the “uptake / visualization of B1R+ tumour” value was “Slightly higher tumour uptake”; the “uptake in negative control (B1R-) tumour” value is reported as “no non-specific tumour uptake”.
For the molecule `CC(C)C[C@H](NC(=O)[C@@H]1CCCN1C(=O)[C@H](CO)NC(=O)[C@H](Cc1ccccc1)NC(=O)CNC(=O)[C@@H]1CCCN1C(=O)[C@@H]1CCCN1C(=O)[C@H](CCCNC(=N)N)NC(=O)[C@H](CCCCN)NC(=O)CCCCCNC(=O)CN1CCN(CC(=O)O)CCN(CC(=O)O)CCN(CC(=O)O)CC1)C(=O)O` [[^68Ga]-Peptide 4, metal not drawn], the tissue uptake at 1 h in the data set “in vivo” (kidney uptake) is 74.9 ± 29.2 %ID/g. The tissue uptake at 1 h in the data set “in vivo” (uptakes in both B1R-negative and B1R-positive tumors) stood at 1.1 ± 0.4 %ID/g. Further, in data set [4], the excretion of radioactivity result is listed as “mainly excreted through the renal pathway” and the “specific uptake to B1R in tumours” value is listed as “No specific uptake”.
Regarding “Sar-Lys-Arg-Pro-Hyp-Gly-Cha-Ser-Pro-(D-Phe) ([Sar]KRP[Hyp]G[Cha]SP[dF])”, the results for the Ki with B1R [5] and with B2R were 0.06 nM and over 10000 nM, respectively.
